Laboratory results from ChEMBL document CHEMBL1201862, “PubChem BioAssay data set” (2004).
Calls of active or inactive are those of the source.

What was measured:
[1] = biological target: T1, Sentrin-specific protease 8 (Homo sapiens, UniProt Q96LD8); assay: SENP8 protease inhibitors, SAR follow-up, biochemical, luminescence (AID 504501); type: functional
T1 sequence (Q96LD8 whole entry): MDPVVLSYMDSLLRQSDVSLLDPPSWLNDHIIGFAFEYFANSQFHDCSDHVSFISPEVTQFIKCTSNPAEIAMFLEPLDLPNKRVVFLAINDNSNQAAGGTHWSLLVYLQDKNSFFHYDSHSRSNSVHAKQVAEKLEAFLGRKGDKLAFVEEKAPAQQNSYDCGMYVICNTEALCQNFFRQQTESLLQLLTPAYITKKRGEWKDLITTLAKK

Protein RecA = biological target: T2, Protein RecA (Mycobacterium tuberculosis, UniProt P9WHJ3); assay: Fluorescence Cell-Free Homogeneous Dose Retest to Identify Inhibitors of RecA-Intein Splicing Activity. [Related pubchem assays (depositor defined):AID2097, AID2223, AID489010, AID492950]; type: functional
T2 sequence (P9WHJ3 whole entry): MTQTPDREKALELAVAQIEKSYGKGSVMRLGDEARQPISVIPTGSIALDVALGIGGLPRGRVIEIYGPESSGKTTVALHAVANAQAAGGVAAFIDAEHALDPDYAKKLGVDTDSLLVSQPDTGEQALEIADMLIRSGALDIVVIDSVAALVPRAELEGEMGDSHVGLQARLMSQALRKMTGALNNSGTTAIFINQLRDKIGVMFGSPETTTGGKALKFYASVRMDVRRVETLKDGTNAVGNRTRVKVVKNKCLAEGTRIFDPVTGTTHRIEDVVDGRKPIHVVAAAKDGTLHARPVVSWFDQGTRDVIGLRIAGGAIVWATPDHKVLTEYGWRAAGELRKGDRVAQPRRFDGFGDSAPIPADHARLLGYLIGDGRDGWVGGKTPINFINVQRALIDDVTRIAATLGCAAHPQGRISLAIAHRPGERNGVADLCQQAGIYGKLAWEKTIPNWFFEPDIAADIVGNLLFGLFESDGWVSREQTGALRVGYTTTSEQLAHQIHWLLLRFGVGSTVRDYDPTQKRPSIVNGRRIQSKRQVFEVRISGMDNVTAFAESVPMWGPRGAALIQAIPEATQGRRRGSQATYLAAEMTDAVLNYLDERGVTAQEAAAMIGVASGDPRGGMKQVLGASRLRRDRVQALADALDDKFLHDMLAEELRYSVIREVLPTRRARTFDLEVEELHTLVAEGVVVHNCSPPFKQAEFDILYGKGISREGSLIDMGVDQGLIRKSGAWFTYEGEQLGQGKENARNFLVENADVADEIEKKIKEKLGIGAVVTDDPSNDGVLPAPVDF

[2] = biological target: T3, Heat shock factor protein 1 (Mus musculus, UniProt P38532); assay: inhibition of MG132-induced HSE-luciferase signal, confirmation, cell-based, NIH3T3, luminescence, dose retest (AID 2382); type: functional;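 further: NIH3T3 fibroblasts with HSF1-driven luciferase reporter stressed by proteasome inhibitor MG132; luminescence from HSF1-driven luciferase expression after 8 hours of MG132 stress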
T3 sequence (P38532 whole entry): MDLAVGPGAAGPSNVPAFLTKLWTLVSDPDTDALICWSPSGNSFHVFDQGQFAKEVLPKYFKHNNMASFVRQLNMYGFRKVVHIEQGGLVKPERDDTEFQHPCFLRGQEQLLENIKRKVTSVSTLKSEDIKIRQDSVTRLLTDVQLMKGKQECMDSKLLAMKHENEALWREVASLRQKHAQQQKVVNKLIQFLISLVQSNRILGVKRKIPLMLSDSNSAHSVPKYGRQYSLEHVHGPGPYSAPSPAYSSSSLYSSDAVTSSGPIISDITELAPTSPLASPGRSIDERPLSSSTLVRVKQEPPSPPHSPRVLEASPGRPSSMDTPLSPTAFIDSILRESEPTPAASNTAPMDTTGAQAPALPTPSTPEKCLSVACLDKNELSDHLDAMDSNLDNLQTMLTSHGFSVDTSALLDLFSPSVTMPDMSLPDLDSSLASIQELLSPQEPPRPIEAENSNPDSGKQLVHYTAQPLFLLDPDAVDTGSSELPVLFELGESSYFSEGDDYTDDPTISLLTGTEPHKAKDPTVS

[3] = biological target: T4, Calpain-2 catalytic subunit (Sus scrofa, UniProt P43367); assay: pig calpain II inhibitor potency, dose response, biochemical, fluorogenic peptide substrate (AID 1420); type: functional
T4 sequence (P43367 whole entry): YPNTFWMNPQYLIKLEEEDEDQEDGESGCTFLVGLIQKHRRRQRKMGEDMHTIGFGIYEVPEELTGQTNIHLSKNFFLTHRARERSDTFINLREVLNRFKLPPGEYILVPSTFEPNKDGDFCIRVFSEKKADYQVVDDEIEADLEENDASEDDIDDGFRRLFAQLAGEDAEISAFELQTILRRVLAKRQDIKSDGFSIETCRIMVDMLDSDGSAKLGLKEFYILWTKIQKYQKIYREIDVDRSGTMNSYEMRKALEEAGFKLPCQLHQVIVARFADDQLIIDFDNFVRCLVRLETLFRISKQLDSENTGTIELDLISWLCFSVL

[4] = Intein inhibitors as potential Tuberculosis drugs, a cytotoxicity screen. [Related pubchem assays (depositor defined):AID2221, AID2223, AID434968, AID435010, AID449749, AID449750, AID489010]; type: functional
[5] = control 3'UTR Renilla luciferase suppression, dose response, counter-screen for Shn3 inhibitor project, cell-based, Clone20-Shn3RL, cherry-picked (AID 624133); type: functional
cells = type: functional, cell-based
[6] = biological target: DNA (cytosine-5)-methyltransferase 1 (Homo sapiens, UniProt P26358); assay: DNMT1 methyltransferase inhibitors, confirmation, biochemical, fluorescent molecular beacon (AID 602386); type: functional
Chain of DNA (cytosine-5)-methyltransferase 1 (P26358 whole entry): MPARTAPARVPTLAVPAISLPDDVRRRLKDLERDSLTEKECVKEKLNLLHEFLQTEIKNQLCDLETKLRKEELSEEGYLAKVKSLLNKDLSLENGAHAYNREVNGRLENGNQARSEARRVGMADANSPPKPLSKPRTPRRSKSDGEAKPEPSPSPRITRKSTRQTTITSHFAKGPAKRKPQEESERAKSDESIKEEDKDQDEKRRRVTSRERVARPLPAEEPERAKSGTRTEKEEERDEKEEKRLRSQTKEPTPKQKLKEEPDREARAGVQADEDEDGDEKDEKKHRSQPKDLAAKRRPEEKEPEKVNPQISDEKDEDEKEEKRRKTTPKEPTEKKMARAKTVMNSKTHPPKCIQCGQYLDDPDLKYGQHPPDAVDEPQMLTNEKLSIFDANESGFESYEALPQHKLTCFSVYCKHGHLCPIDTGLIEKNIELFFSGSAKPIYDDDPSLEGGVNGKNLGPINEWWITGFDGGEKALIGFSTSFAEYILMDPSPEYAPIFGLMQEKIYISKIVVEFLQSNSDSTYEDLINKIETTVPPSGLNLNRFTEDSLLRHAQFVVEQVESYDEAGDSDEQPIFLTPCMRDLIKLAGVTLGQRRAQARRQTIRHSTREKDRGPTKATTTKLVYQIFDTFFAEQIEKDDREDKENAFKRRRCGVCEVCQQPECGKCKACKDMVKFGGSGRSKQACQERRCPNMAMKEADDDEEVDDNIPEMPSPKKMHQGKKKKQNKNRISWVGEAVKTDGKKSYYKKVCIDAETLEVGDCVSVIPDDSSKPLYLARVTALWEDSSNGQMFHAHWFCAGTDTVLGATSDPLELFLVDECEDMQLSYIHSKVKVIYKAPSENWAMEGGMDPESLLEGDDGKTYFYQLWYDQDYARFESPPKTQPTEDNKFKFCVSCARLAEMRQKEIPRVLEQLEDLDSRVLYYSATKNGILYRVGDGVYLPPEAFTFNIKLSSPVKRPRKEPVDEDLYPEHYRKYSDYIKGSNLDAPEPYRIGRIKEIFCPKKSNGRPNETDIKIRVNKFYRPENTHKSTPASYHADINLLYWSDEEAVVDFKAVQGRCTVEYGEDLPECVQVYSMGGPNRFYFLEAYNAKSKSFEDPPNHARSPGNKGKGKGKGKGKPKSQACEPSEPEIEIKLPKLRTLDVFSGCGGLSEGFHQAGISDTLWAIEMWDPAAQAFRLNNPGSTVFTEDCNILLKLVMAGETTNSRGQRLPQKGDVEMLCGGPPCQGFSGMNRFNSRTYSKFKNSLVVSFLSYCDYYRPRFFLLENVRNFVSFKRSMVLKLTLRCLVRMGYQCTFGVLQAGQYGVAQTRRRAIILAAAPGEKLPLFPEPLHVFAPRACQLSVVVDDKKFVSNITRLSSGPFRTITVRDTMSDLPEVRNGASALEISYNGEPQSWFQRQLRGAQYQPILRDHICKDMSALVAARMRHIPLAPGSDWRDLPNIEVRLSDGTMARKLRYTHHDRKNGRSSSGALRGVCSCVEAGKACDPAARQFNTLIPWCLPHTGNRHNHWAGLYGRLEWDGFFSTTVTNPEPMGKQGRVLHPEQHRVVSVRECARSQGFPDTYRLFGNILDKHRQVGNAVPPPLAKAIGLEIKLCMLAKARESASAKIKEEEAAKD

Caspase-7 = Caspase-7 (Homo sapiens, UniProt P55210); assay: human caspase-7 inhibitors, dose response, selectivity assay for caspase-6 inhibitor project, biochemical, DEVD-R110 fluorescence, cherry-pick (AID 743295)
Chain of Caspase-7 (P55210 24-198 limits assumed): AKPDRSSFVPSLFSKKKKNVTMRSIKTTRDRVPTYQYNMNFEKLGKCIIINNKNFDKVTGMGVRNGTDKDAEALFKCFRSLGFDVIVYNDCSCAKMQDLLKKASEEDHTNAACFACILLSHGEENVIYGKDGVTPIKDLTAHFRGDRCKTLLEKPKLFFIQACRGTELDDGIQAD
Chain of Caspase-7 (P55210 207-303 limits assumed): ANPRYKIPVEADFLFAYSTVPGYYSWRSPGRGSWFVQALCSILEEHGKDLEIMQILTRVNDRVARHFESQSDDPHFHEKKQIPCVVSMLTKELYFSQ
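Wherever CC50 is given: cells exposed to compound for 72 hours before luminescence readout.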

CCCCNc1cc(NC(C)=O)cc2cc(OC)c(OC)cc12
IC50 [1]: > 99 µM (inactive)

SC1=Nc2ccccc2C1
EC50 (Protein RecA): 1.66 µM (active) | EC50 [2]: 0.79 µM (active) | IC50 [3]: 14.9 µM (not active)

Cn1nc(-c2ccc(Cl)cc2)nc2c(=O)n(C)c(=O)nc1-2
EC50 (Protein RecA): 0.0305 µM (active) | CC50 [4]: > 40 µM (active) | IC50 [3]: 24.7 µM (not active)

COc1ccc(C(NC(=O)C(C)C)c2ccc3cccnc3c2O)cc1 (stereo unspecified)
AC50 [5]: 2.27 µM (active) | EC50 (cells): > 350 µM (not active)

NS(=O)(=O)c1ccc(NC(=O)COC(=O)c2ccc([N+](=O)[O-])s2)cc1
IC50 [6]: 25.1 µM (active) | AC50 (Caspase-7): > 22 µM (inactive)
